This experiment relates to interaction between CaMKIIα and calmodulin. The experiment can be described thus: Real-time observation of calcium-dependent nanocluster formation (CaMKIIα-CaM interaction) in cotransfected HeLa cells. As to conditions: ionomycin 1 mM; 80 seconds after treatment; HeLa cells cotransfected with mCherry-CaMKII[296-315]-AD and CaM-ECFP-FT; fluorescence distributed again as time passes. In kind it is cell-based. The method, then:
To investigate whether the system of the present disclosure can be used for real-time observation of an intermolecular interaction regulated by calcium through a calcium dependent nanocluster formation, the present inventors cotransfected HeLa cells with the mCherry-CaMKII[296-315]-AD construct constructed in example 1-18 and the CaM-ECFP-FT construct constructed in example 1-19 through the method described above. Thereafter, the cells were treated with 1 mM of ionomycin as ionophore which facilitates calcium ion penetration.
Then, fluorescence was distributed again as time passes.

Structures are written as SMILES.

`C[C@H](CCC(=O)O)C[C@H](C)C[C@H](C)C(=O)/C=C(\O)[C@H](C)C[C@H](C)C/C=C/[C@@H](C)[C@@H](O)[C@@H](C)[C@@H](O)C[C@@H]1CC[C@@](C)([C@H]2CC[C@@](C)([C@@H](C)O)O2)O1` [ionomycin]: the “distribution and intensity of fluorescence (nanocluster formation)” value is on record as “a strong fluorescence dot appeared in cytoplasm due to a nanocluster formation”.

The values are drawn from patent US9784747B2, “Method and kit for analyzing protein-protein interaction using nanocluster formation” (KOREA ADVANCED INSTITUTE OF SCIENCE AND TECHNOLOGY, priority 2011, dated 2017).
